From ChEMBL document CHEMBL1806398, “Benzothiazole-based N-(phenylsulfonyl)amides as a novel family of PPARα antagonists” (Bioorg Med Chem Lett, 2011)

Legend:
[1] = biological target: T1, Peroxisome proliferator-activated receptor alpha (Homo sapiens) (UniProt Q07869); assay: Agonist activity at PPARalpha ligand binding domain expressed in HEK293 cells co-expressing GAL4 at 150 uM after 18 hrs by dual-luciferase activity based transactivation assay relative to control; format: cell-based
T1 sequence (whole entry): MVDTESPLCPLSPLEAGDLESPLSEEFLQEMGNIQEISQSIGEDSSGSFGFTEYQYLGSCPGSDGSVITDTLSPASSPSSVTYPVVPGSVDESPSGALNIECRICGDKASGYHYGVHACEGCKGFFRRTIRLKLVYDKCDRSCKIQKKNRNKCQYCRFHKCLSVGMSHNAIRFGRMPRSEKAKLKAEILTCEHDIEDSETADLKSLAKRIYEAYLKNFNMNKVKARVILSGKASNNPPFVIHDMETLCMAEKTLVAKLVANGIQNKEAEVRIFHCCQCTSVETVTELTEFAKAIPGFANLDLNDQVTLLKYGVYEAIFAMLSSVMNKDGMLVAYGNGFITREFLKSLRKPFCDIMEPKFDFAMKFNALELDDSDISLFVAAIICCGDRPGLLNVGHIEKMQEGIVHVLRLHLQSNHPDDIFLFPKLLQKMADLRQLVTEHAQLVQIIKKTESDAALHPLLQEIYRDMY

[2] = biological target: T2, Peroxisome proliferator-activated receptor alpha (Homo sapiens, UniProt Q07869); assay: (§1) Antagonist activity at PPARalpha ligand binding domain expressed in HEK293 cells co-expressing GAL4 assessed as inhibition of GW7647-induced transactivation activity after 18 hrs by dual-luciferase assay; format: cell-based
T2 sequence (Q07869 whole entry): T1 sequence (whole entry)

[3] = biological target: T1, Peroxisome proliferator-activated receptor alpha (Homo sapiens); assay: Antagonist activity at PPARalpha in human HepG2 cells assessed as inhibition of GW7647-induced CPT1A mRNA expression at 150 uM after 48 hrs by RT-PCR analysis relative to control; format: functional, cell-based
[4] = biological target: T1, Peroxisome proliferator-activated receptor alpha (Homo sapiens); assay: Antagonist activity at PPARalpha in human HepG2 cells assessed as inhibition of CPT1A mRNA expression at 150 uM after 48 hrs by RT-PCR analysis relative to control; format: functional, cell-based
[5] = biological target: T2, Peroxisome proliferator-activated receptor alpha; assay: Agonist activity at PPARalpha ligand binding domain expressed in HEK293 cells co-expressing GAL4 after 18 hrs by dual-luciferase activity based transactivation assay; format: cell-based
[6] = biological target: T1, Peroxisome proliferator-activated receptor alpha (Homo sapiens); assay: Antagonist activity at PPARalpha ligand binding domain expressed in HEK293 cells co-expressing GAL4 assessed as inhibition of transactivation activity at 10 uM after 18 hrs by dual-luciferase assay relative to control; format: cell-based
[7] = biological target: T1, Peroxisome proliferator-activated receptor alpha (Homo sapiens); assay: Antagonist activity at PPARalpha ligand binding domain expressed in HEK293 cells co-expressing GAL4 assessed as inhibition of GW7647-induced transactivation activity at 10 uM after 18 hrs by dual-luciferase assay relative to control; format: cell-based
[8] = biological target: T1, Peroxisome proliferator-activated receptor alpha (Homo sapiens); assay: Antagonist activity at PPARalpha in human HepG2 cells assessed as inhibition of GW7647-induced CPT1A mRNA expression at 20 uM after 48 hrs by RT-PCR analysis relative to control; format: functional, cell-based
[9] = biological target: T1, Peroxisome proliferator-activated receptor alpha (Homo sapiens); assay: Antagonist activity at PPARalpha ligand binding domain expressed in HEK293 cells co-expressing GAL4 assessed as inhibition of transactivation activity at 100 uM after 18 hrs by dual-luciferase assay relative to control; format: cell-based
[10] = biological target: T1, Peroxisome proliferator-activated receptor alpha (Homo sapiens); assay: Antagonist activity at PPARalpha ligand binding domain expressed in HEK293 cells co-expressing GAL4 assessed as inhibition of transactivation activity at 1 uM after 18 hrs by dual-luciferase assay relative to control; format: cell-based
[11] = biological target: T1, Peroxisome proliferator-activated receptor alpha (Homo sapiens); assay: Antagonist activity at PPARalpha in human HepG2 cells assessed as inhibition of GW7647-induced CPT1A mRNA expression after 48 hrs by RT-PCR analysis relative to control; format: functional, cell-based
[12] = biological target: T1, Peroxisome proliferator-activated receptor alpha (Homo sapiens); assay: Antagonist activity at PPARalpha in human HepG2 cells assessed as inhibition of GW7647-induced CPT1A mRNA expression at 2 uM after 48 hrs by RT-PCR analysis relative to control; format: functional, cell-based
[13] = biological target: T1, Peroxisome proliferator-activated receptor alpha (Homo sapiens); assay: Antagonist activity at PPARalpha ligand binding domain expressed in HEK293 cells co-expressing GAL4 assessed as inhibition of transactivation activity at 50 uM after 18 hrs by dual-luciferase assay relative to control; format: cell-based
[14] = biological target: T1, Peroxisome proliferator-activated receptor alpha (Homo sapiens); assay: Antagonist activity at PPARalpha ligand binding domain expressed in HEK293 cells co-expressing GAL4 assessed as inhibition of transactivation activity at 150 uM after 18 hrs by dual-luciferase assay relative to control; format: cell-based
[15] = biological target: T1, Peroxisome proliferator-activated receptor alpha (Homo sapiens); assay: Antagonist activity at PPARalpha ligand binding domain expressed in HEK293 cells co-expressing GAL4 assessed as inhibition of GW7647-induced transactivation activity at 1 uM after 18 hrs by dual-luciferase assay relative to control; format: cell-based
[16] = biological target: T1, Peroxisome proliferator-activated receptor alpha (Homo sapiens); assay: as §1; format: cell-based
[17] = biological target: T1, Peroxisome proliferator-activated receptor alpha (Homo sapiens); assay: Antagonist activity at PPARalpha ligand binding domain expressed in HEK293 cells co-expressing GAL4 assessed as inhibition of GW7647-induced transactivation activity at 50 uM after 18 hrs by dual-luciferase assay relative to control; format: cell-based
[18] = biological target: T1, Peroxisome proliferator-activated receptor alpha (Homo sapiens); assay: Antagonist activity at PPARalpha in human HepG2 cells assessed as inhibition of GW7647-induced CPT1A mRNA expression at 0.2 uM after 48 hrs by RT-PCR analysis relative to control; format: functional, cell-based
[19] = biological target: T1, Peroxisome proliferator-activated receptor alpha (Homo sapiens); assay: Antagonist activity at PPARalpha ligand binding domain expressed in HEK293 cells co-expressing GAL4 assessed as inhibition of GW7647-induced transactivation activity at 150 uM after 18 hrs by dual-luciferase assay relative to control; format: cell-based
[20] = biological target: T1, Peroxisome proliferator-activated receptor alpha (Homo sapiens); assay: Antagonist activity at PPARalpha ligand binding domain expressed in HEK293 cells co-expressing GAL4 assessed as inhibition of GW7647-induced transactivation activity at 100 uM after 18 hrs by dual-luciferase assay relative to control; format: cell-based

Compound	fold change (FC) [1]	IC50 [2] [µM]	fold change (FC) [3]	fold change (FC) [4]	other results
CC(C)(Oc1ccc(Cl)cc1)C(=O)O	1.6				
CCCC(Sc1nc2ccc(OCC)cc2s1)C(=O)NS(=O)(=O)c1ccccc1 (racemic)	0.05	31			
CCCC(Sc1nc2cc(Cl)ccc2s1)C(=O)NS(=O)(=O)c1ccccc1 (racemic)	0.09	22.2	0.235	0.248	
CC(C)C(Sc1nc2cc(Cl)ccc2s1)C(=O)NS(=O)(=O)c1ccccc1 (racemic)	0.1	27.9			
CCCCC(Sc1nc2cc(Cl)ccc2s1)C(=O)NS(=O)(=O)c1ccccc1 (racemic)	0.01	19.9	0.003	0.005	
CCCCCCC(Sc1nc2cc(Cl)ccc2s1)C(=O)NS(=O)(=O)c1ccccc1 (racemic)	1.49				EC50 [5]: 50.6 µM
O=C(NS(=O)(=O)c1ccccc1)C(Sc1nc2cc(Cl)ccc2s1)c1ccccc1 (racemic)	0.01	6.5	0.005	0.005	fold change (FC) [6]: -0.23; fold change (FC) [7]: 2.14; fold change (FC) [8]: 1.68; fold change (FC) [9]: -0.03; fold change (FC) [10]: -0.78; inhibition [11]: Dose-dependent effect; fold change (FC) [12]: 2.36; fold change (FC) [13]: -0.03; fold change (FC) [14]: -0.01; fold change (FC) [15]: 3.8; inhibition [16]: Dose-dependent effect; fold change (FC) [17]: -0.63; fold change (FC) [18]: 3.59; fold change (FC) [19]: -0.09; fold change (FC) [20]: -0.1
CCOc1ccc2nc(SC(C)C(=O)NS(=O)(=O)c3ccccc3)sc2c1 (racemic)	0.89				
